Data as given in ChEMBL document CHEMBL5214960 (J Med Chem, 2022).
pIC50: −log10 of the molar value.

Experiments:
[1] = Inhibition of PTP-Meg2 (unknown origin); set-up: species or system Homo sapiens
[2] = target: Tyrosine-protein phosphatase non-receptor type 7 (Homo sapiens, UniProt P35236); assay: Inhibition of HePTP (unknown origin)
[3] = target: Tyrosine-protein phosphatase non-receptor type 22 (Homo sapiens, UniProt Q9Y2R2); assay: Inhibition of LYP (unknown origin)
[4] = target: Tyrosine-protein phosphatase non-receptor type 6 (Homo sapiens, UniProt P29350); assay: Inhibition of SHP1 (unknown origin)
Chain of Tyrosine-protein phosphatase non-receptor type 6 (P29350 whole entry): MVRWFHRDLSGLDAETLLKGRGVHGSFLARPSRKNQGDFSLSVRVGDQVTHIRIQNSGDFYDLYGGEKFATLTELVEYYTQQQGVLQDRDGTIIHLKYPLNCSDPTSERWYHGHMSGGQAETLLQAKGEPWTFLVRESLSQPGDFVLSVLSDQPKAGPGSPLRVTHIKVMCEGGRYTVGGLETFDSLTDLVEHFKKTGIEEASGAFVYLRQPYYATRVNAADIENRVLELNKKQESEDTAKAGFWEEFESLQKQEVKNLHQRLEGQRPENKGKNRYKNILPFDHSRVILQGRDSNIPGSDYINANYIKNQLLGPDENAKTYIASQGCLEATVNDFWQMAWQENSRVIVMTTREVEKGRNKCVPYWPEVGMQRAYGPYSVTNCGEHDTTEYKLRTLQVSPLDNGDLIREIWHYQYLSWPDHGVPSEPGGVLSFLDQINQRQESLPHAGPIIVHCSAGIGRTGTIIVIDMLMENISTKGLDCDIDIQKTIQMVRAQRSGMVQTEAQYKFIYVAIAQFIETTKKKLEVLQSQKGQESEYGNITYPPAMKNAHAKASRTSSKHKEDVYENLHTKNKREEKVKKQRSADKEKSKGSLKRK

[5] = target: T1, Low molecular weight phosphotyrosine protein phosphatase (Homo sapiens, UniProt P24666); assay: Inhibition of His-tagged human LMW-PTP expressed in Escherichia coli BL21 using pNPP as substrate incubated for 10 mins by microplate reader based spectrophotometric analysis
T1 sequence (P24666 whole entry): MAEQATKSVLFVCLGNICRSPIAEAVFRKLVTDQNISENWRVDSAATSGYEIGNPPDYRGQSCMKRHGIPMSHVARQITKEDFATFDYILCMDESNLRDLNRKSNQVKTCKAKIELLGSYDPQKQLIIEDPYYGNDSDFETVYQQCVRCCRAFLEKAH

[6] = target: Receptor-type tyrosine-protein phosphatase beta (Homo sapiens, UniProt P23467); assay: Inhibition of PTPbeta (unknown origin)
Chain of Receptor-type tyrosine-protein phosphatase beta (P23467 whole entry): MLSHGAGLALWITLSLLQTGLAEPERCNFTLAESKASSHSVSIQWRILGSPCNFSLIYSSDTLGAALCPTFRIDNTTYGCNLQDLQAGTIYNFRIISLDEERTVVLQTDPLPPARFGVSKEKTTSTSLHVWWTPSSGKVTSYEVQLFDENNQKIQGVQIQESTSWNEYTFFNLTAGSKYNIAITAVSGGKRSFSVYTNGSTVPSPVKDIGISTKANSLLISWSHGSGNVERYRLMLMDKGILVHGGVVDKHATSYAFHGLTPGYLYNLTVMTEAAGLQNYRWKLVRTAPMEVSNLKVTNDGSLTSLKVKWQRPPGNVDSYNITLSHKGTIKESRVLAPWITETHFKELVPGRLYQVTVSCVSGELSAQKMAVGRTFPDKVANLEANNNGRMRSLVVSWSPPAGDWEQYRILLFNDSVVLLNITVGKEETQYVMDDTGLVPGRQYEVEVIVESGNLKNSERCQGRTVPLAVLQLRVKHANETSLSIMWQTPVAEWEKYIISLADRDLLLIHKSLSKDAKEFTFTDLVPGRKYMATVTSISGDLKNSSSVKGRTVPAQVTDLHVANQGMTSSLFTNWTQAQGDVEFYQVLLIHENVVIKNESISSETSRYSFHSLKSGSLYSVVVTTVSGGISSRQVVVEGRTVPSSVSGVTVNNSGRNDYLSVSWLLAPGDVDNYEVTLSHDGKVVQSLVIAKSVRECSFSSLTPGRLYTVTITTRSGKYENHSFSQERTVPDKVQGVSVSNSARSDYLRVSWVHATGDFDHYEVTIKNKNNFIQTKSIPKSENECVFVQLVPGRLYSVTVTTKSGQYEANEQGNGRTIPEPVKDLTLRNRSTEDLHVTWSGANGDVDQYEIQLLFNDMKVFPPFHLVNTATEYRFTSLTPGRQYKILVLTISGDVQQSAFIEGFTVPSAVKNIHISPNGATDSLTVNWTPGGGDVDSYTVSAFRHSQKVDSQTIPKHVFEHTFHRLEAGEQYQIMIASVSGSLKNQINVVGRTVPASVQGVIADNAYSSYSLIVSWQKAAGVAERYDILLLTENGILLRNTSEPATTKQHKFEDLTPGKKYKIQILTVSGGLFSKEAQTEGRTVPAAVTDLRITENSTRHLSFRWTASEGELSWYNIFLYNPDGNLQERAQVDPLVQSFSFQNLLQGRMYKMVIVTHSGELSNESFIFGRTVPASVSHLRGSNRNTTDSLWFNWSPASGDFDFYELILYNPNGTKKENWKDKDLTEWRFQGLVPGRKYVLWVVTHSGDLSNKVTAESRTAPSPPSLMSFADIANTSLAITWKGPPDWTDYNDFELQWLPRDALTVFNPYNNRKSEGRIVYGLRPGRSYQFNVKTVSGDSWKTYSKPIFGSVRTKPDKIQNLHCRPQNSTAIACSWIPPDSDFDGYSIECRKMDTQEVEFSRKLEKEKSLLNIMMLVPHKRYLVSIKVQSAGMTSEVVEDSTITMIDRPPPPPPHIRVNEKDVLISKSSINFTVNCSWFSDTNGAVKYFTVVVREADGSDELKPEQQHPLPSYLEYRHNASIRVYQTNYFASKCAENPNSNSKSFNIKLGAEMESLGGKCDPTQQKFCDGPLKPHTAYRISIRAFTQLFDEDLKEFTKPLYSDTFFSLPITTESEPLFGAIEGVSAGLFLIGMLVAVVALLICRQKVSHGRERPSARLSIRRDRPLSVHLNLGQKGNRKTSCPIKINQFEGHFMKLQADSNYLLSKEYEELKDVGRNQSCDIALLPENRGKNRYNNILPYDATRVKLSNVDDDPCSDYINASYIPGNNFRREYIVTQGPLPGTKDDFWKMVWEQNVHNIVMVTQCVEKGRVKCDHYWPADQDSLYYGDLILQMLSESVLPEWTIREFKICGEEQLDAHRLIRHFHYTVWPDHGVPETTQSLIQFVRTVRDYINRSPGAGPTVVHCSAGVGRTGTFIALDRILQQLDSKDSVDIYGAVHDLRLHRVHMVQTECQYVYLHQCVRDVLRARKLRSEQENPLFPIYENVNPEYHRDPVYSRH

[7] = target: Dual specificity protein phosphatase 6 (Homo sapiens, UniProt Q16828); assay: Inhibition of MKP3 (unknown origin)
Chain of Dual specificity protein phosphatase 6 (Q16828 whole entry): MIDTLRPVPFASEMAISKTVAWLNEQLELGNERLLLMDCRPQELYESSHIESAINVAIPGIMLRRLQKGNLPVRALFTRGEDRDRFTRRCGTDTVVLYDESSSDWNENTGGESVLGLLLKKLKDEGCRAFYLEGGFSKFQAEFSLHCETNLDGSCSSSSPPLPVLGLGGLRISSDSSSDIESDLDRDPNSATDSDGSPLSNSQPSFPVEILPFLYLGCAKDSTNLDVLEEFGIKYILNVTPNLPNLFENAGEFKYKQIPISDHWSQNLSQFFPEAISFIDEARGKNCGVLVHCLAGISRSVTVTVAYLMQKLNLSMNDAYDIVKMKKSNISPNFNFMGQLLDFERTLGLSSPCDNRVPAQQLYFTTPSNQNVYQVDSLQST

[8] = target: Dual specificity protein phosphatase 3 (Homo sapiens, UniProt P51452); assay: Inhibition of VHR (unknown origin)
Chain of Dual specificity protein phosphatase 3 (P51452 whole entry): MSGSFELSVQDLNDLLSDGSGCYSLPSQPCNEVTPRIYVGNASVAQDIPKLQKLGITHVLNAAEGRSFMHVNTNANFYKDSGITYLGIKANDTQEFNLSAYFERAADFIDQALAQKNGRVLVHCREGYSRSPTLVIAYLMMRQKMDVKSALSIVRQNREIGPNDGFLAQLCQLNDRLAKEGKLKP

[9] = target: Serine/threonine-protein phosphatase 5 (Homo sapiens, UniProt P53041); assay: Inhibition of PP5 (unknown origin)
Chain of Serine/threonine-protein phosphatase 5 (P53041 whole entry): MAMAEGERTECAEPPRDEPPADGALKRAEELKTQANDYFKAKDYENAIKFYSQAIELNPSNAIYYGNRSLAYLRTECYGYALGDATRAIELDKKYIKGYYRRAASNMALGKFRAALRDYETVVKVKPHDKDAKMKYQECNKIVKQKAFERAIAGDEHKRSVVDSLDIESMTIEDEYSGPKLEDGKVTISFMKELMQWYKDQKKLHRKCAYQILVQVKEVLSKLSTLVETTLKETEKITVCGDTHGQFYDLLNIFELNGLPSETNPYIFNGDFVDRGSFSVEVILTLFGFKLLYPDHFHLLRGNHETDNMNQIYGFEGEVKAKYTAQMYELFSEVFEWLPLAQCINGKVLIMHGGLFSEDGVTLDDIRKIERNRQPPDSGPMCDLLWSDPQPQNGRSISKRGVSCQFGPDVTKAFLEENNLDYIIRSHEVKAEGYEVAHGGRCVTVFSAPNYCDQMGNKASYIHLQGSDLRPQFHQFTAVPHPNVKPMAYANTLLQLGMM

[10] = Plasma protein binding in mouse assessed as unbound fraction measured after 4.5 hrs by LC-MS/MS analysis; assay type: ADME, cell-free
[11] = Cmax in CD-1 mouse plasma at 2 mg/kg, iv measured after 8 hrs by LC-MS/MS analysis; assay type: ADME, organism-based; set-up: time 8 hrs, dose 2 mg/kg, route iv
[12] = Unbound Cmax in plasma of CD-1 mouse at 10 mg/kg, po measured after 8 hrs by LC-MS/MS analysis; assay type: ADME, organism-based; conditions: in vivo
[13] = Oral bioavailability in CD-1 mouse plasma at 10 mg/kg measured after 8 hrs by LC-MS/MS analysis; assay type: ADME, organism-based; conditions: mouse, in vivo, po, 10 mg/kg, 8 h
[14] = AUC(0 to 12 hrs) in Sprague-Dawley rat plasma at 30 mg/kg, po measured after 24 hrs by LC-MS/MS analysis; assay type: ADME, organism-based; set-up: time 24 hrs, dose 30 mg/kg, route po; conditions: in vivo
[15] = AUC(0 to 12 hrs) in Sprague-Dawley rat plasma at 3 mg/kg, po measured after 24 hrs by LC-MS/MS analysis; assay type: ADME, organism-based; set-up: time 24 hrs, dose 3 mg/kg, route po; conditions: in vivo
[16] = Cmax in Sprague-Dawley rat plasma at 3 mg/kg, po measured after 24 hrs by LC-MS/MS analysis; assay type: ADME, organism-based; set-up: time 24 hrs, dose 3 mg/kg, route po; conditions: in vivo
[17] = Unbound Cmax in plasma of Sprague-Dawley rat at 3 mg/kg, po measured after 24 hrs by LC-MS/MS analysis; assay type: ADME, organism-based; conditions: in vivo
[18] = Half life in Sprague-Dawley rat plasma at 3 mg/kg, po measured after 24 hrs by LC-MS/MS analysis; assay type: ADME, organism-based; conditions: in vivo

Chain of Tyrosine-protein phosphatase non-receptor type 22 (Q9Y2R2 whole entry): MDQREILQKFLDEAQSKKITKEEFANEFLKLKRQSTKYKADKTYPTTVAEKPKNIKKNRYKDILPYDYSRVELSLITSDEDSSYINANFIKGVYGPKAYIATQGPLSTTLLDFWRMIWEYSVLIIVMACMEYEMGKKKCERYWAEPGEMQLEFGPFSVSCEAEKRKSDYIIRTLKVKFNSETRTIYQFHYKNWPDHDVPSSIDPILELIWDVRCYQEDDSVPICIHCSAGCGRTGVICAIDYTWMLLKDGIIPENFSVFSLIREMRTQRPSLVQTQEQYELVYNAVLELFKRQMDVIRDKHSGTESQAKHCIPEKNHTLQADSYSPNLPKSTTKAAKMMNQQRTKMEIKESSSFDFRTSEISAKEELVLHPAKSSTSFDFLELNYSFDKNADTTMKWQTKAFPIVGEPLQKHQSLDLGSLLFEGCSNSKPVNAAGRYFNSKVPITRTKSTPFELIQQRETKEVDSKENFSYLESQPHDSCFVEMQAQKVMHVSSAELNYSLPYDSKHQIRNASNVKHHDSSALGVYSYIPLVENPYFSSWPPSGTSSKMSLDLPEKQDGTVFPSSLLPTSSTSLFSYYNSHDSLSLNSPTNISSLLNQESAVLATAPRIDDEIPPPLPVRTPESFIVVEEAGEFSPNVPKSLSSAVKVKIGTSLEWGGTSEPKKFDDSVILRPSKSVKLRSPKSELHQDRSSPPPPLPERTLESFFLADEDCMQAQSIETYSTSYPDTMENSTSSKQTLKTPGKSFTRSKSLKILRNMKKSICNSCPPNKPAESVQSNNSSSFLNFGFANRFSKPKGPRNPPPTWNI
Chain of Tyrosine-protein phosphatase non-receptor type 7 (P35236 whole entry): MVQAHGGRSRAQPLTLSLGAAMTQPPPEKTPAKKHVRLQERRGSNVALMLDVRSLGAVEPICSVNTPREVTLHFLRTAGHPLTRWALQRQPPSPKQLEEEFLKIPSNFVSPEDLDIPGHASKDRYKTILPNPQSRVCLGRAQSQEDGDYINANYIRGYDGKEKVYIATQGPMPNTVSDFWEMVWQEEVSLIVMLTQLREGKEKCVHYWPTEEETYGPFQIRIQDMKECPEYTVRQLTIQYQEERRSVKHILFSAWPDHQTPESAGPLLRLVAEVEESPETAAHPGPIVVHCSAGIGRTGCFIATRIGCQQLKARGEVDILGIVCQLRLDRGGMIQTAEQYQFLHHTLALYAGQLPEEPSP

**Q.** With `Cc1c(Br)cc(NC(=O)NS(=O)(=O)O)cc1Br` as the compound, how does the pIC50 [1] read?
**A.** < 5.00

**Q.** And the pIC50 [2]?
**A.** < 5.00

**Q.** And the pIC50 [3]?
**A.** < 5.00

**Q.** And the pIC50 [4]?
**A.** < 5.00

**Q.** And the pIC50 [5]?
**A.** 8.40

**Q.** And the pIC50 [6]?
**A.** < 5.00

**Q.** What about the pIC50 [7] of the same compound?
**A.** < 5.00

**Q.** What about the pIC50 [8] of the same compound?
**A.** < 5.00

**Q.** And the pIC50 [9]?
**A.** < 5.00

**Q.** And the Fu [10]?
**A.** 0.024

**Q.** And the Cmax [11]?
**A.** 13.4 µM

**Q.** What about the fCmax [12] of the same compound?
**A.** 233 nM

**Q.** And the F [13]?
**A.** 34%

**Q.** What about the AUC [14] of the same compound?
**A.** 42.8 µM·h

**Q.** And the AUC [15]?
**A.** 4.66 µM·h

**Q.** And the Cmax [16]?
**A.** 0.877 µM

**Q.** What about the fCmax [17] of the same compound?
**A.** 21 nM

**Q.** And the t1/2 [18]?
**A.** 2.4 h
